# Assay results published in ChEMBL document CHEMBL1201862, “PubChem BioAssay data set” (2004).
# Calls of active or inactive are those of the source.
# Columns and labels:
# [1] = target: T1, Carboxy-terminal domain RNA polymerase II polypeptide A small phosphatase 1 (Homo sapiens, UniProt Q9GZU7); assay: inhibitors of CTDSP1, concentration-response testing, biochemical assay, absorbance-based, actives from ultra-high-throughput screening (AID 540297); format: functional
# T1 sequence (Q9GZU7 whole entry): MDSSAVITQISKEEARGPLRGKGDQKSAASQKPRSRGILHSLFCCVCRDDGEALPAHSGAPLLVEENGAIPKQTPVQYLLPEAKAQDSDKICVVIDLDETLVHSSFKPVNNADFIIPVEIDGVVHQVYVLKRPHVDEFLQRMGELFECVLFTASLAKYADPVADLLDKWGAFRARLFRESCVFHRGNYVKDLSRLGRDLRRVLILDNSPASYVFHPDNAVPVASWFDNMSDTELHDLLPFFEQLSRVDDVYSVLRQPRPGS
# [2] = Luminescence Cell-Based Dose Retest to Confirm Inhibitors of Cancer Stem Cells. [Related pubchem assays (depositor defined):AID2717, AID2721]; format: functional; details: Homo sapiens
# [3] = intracellular Trypanosoma cruzi inhibitors in host cells – cell-based, plate reader, cherry-pick samples, set 3, dose response (AID 651818); format: functional;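 note: compounds incubated with infected cells for about four days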
# [4] = target: T2, Endoribonuclease toxin MazF (Escherichia coli K-12, UniProt P0AE70); assay: fluorescent RNA oligo signal without MazF, dose response, counter-screen for MazEF activator project, biochemical, fluorescence, single-stranded RNase substrate (AID 588502); format: functional
# T2 sequence (P0AE70 whole entry): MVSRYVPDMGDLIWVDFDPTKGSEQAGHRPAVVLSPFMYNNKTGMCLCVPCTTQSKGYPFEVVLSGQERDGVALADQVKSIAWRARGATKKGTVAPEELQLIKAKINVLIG
# [5] = target: T2, Endoribonuclease toxin MazF; assay: MazF toxin RNase activators, dose response, biochemical, fluorescence, single-stranded RNA substrate, uHTS hits (AID 588481); format: functional
# Estrogen receptor = target: T3, Estrogen receptor (Homo sapiens, UniProt P03372);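 note: potency for inhibiting coactivator peptide recruitment to the receptor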
# T3 sequence (P03372 whole entry): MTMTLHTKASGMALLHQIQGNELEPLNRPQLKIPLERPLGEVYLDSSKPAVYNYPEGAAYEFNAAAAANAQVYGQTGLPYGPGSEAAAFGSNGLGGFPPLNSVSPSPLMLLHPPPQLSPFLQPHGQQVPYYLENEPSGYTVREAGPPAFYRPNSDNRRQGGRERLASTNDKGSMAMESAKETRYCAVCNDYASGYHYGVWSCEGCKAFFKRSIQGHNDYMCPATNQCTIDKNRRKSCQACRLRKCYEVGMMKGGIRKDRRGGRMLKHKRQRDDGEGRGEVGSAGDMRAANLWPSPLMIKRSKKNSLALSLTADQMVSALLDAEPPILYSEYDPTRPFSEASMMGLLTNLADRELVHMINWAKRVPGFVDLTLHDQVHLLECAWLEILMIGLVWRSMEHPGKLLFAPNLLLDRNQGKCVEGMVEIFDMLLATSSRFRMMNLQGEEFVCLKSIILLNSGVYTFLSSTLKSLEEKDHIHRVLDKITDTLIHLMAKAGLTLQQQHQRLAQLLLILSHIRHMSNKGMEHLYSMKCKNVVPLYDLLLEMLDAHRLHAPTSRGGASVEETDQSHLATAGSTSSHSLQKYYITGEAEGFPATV
Structure (SMILES),IC50 [1],AC50 [3],other results
O=C(NNC(=O)c1cc2cc3ccccc3nc2s1)c1ccc(F)cc1,4.28 µM (active),,
O=[N+]([O-])c1cccc(-c2csc(N/N=C/c3cccc(O)c3)n2)c1,10.8 µM (active),,AC50 [2]: 2.8 µM (active)
C[C@@H]1CN([C@H](C)CO)C(=O)c2cccc(NC(=O)Nc3ccc(C(F)(F)F)cc3)c2O[C@@H]1CN(C)Cc1ccc(Oc2ccccc2)cc1,,7.23 µM (active),
O=C(O)Cc1ccc(NC(=O)c2ccc3c(c2)C(=O)N(Cc2ccco2)C3=O)cc1,3.79 µM (active),,
C[C@@H]1CN([C@H](C)CO)C(=O)c2cc(NC(=O)Nc3cccc4ccccc34)ccc2O[C@@H]1CN(C)Cc1ccc(C(F)(F)F)cc1,,2.44 µM (active),
CCCCN1CC(=O)N2[C@@H]3c4cc(Br)ccc4OC[C@@H]3[C@H](C(=O)OCC)[C@]2(C)C1=O,,,EC50 [4]: 39.6 µM (inactive); EC50 [5]: > 99 µM (inactive)
COc1ccc(OCCC(=O)OCC(=O)NCc2ccco2)cc1,9.12 µM (active),,IC50 (Estrogen receptor): 33.3 µM (not active)
C[C@@H]1CCCCO[C@@H](CN(C)Cc2ccc(C(=O)Nc3ccccc3N)cc2)[C@@H](C)CN([C@H](C)CO)C(=O)c2cc(NS(C)(=O)=O)ccc2O1,,4.5 µM (active),
